ChEMBL document CHEMBL5252562, “Synthesis, evaluation of anti-breast cancer activity in vitro of ICS II derivatives and summary of the structure-activity relationship” (Bioorg Med Chem, 2023)

What was measured:
MCF7 [1] = assay: Antitumor activity against human MCF7 cells assessed as cell viability incubated for 48 hrs by CCK8 assay; type: functional, cell-based; conditions: MCF7, 48 h
[2] = Cytotoxicity against African green monkey Vero cells; type: toxicity, cell-based; conditions: African green monkey (Chlorocebus sabaeus)
[3] = Selectivity index, ratio of IC50 for cytotoxicity against African green monkey Vero cells to IC50 for antitumor activity against human MCF7 cells; type: toxicity, cell-based; conditions: Vero cells and MCF7 cells, read-out: Ratio IC50
MCF7 [4] = assay: Antitumor activity against human MCF7 cells assessed as cell viability at 20 uM incubated for 48 hrs by CCK8 assay; type: functional; conditions: read-out: Activity
MCF7 [5] = assay: Potency index, ratio of Icariside-II IC50 to test compound IC50 for antitumor activity against human MCF7 cells; type: functional

Question: Which IC50 (MCF7 [1]) does the source give for `COc1ccc(-c2oc3c(CC=C(C)C)c(O)c(CN(C(C)C)C(C)C)c(O)c3c(=O)c2O[C@@H]2O[C@@H](C)[C@H](O)[C@@H](O)[C@H]2O)cc1` here?
Answer: Its IC50 is over 20 µM.

Question: Which IC50 (MCF7 [1]) does the source give for `C=CCOc1cc(O)c2c(=O)c(O[C@@H]3O[C@@H](C)[C@H](O)[C@@H](O)[C@H]3O)c(-c3ccc(OC)cc3)oc2c1CC=C(C)C` here?
Answer: The IC50 was 2.89 µM.

Question: And the IC50 [2]?
Answer: The IC50 was 5.88 µM.

Question: And the selectivity ratio [3]?
Answer: Its selectivity ratio is 2.03.

Question: What about the viability at 20 µM (MCF7 [4]) of the same compound?
Answer: The viability at 20 µM was under 50%.

Question: For `COc1ccc(-c2oc3c(CC=C(C)C)c(O)c(CN4CCCC4)c(O)c3c(=O)c2O[C@@H]2O[C@@H](C)[C@H](O)[C@@H](O)[C@H]2O)cc1`, which IC50 (MCF7 [1]) is on record?
Answer: Its IC50 is over 20 µM.

Question: Which IC50 (MCF7 [1]) does the source give for `COc1ccc(-c2oc3c(CC=C(C)C)c(O)c(CN4CCCCC4)c(O)c3c(=O)c2O[C@@H]2O[C@@H](C)[C@H](O)[C@@H](O)[C@H]2O)cc1` here?
Answer: The IC50 was over 20 µM.

Question: With `COc1ccc(-c2oc3c(CC=C(C)C)c(O)cc(O)c3c(=O)c2O[C@@H]2O[C@@H](C)[C@H](O)[C@@H](O)[C@H]2O)cc1` as the compound, how does the IC50 (MCF7 [1]) read?
Answer: Its IC50 is 7.52 µM.

Question: What about the IC50 [2] of the same compound?
Answer: Its IC50 is 9.34 µM.

Question: What about the selectivity ratio [3] of the same compound?
Answer: Its selectivity ratio is 1.24.

Question: For `COc1ccc(-c2oc3c(CC=C(C)C)c(OCCCCCCCCCO)cc(O)c3c(=O)c2O[C@@H]2O[C@@H](C)[C@H](O)[C@@H](O)[C@H]2O)cc1`, which IC50 (MCF7 [1]) is on record?
Answer: Its IC50 is 10.2 µM.

Question: And the viability at 20 µM (MCF7 [4])?
Answer: The viability at 20 µM was under 50%.

Question: Which results are given for `COc1ccc(-c2oc3c(CC=C(C)C)c(OCC4OCCO4)cc(O)c3c(=O)c2O[C@@H]2O[C@@H](C)[C@H](O)[C@@H](O)[C@H]2O)cc1`?
Answer: IC50 (MCF7 [1]): 6.28 µM; viability at 20 µM (MCF7 [4]): < 50%

Question: For `CC(=O)O[C@H]1C(=O)[C@@]2(C)[C@H]([C@H](OC(=O)c3ccccc3)[C@]3(O)C[C@H](OC(=O)[C@H](O)[C@@H](NC(=O)c4ccccc4)c4ccccc4)C(C)=C1C3(C)C)[C@]1(OC(C)=O)CO[C@@H]1C[C@@H]2O` [PACLITAXEL], which IC50 (MCF7 [1]) is on record?
Answer: The IC50 was 0.48 µM.

Question: Which results are given for `COc1ccc(-c2oc3c(CC=C(C)C)c(OC(C)=O)cc(O)c3c(=O)c2O[C@@H]2O[C@@H](C)[C@H](OC(C)=O)[C@@H](OC(C)=O)[C@H]2OC(C)=O)cc1`?
Answer: IC50 (MCF7 [1]): 1.54 µM; IC50 [2]: 3.88 µM; selectivity ratio [3]: 2.51; viability at 20 µM (MCF7 [4]): < 50%

Question: With `COc1ccc(-c2oc3c(CC=C(C)C)c(O)c(CN4CCNCC4)c(O)c3c(=O)c2O[C@@H]2O[C@@H](C)[C@H](O)[C@@H](O)[C@H]2O)cc1` as the compound, how does the IC50 (MCF7 [1]) read?
Answer: Its IC50 is over 20 µM.

Question: With `C=C(C)COc1cc(O)c2c(=O)c(O[C@@H]3O[C@@H](C)[C@H](O)[C@@H](O)[C@H]3O)c(-c3ccc(OC)cc3)oc2c1CC=C(C)C` as the compound, how does the IC50 (MCF7 [1]) read?
Answer: Its IC50 is 3.97 µM.

Question: What about the IC50 [2] of the same compound?
Answer: Its IC50 is 8.18 µM.

Question: What about the selectivity ratio [3] of the same compound?
Answer: The selectivity ratio was 2.06.

Question: And the viability at 20 µM (MCF7 [4])?
Answer: Its viability at 20 µM is under 50%.

Question: For `COc1ccc(-c2oc3c(CC=C(C)C)c(OCCO)cc(O)c3c(=O)c2O[C@@H]2O[C@@H](C)[C@H](O)[C@@H](O)[C@H]2O)cc1`, which IC50 (MCF7 [1]) is on record?
Answer: Its IC50 is 10.2 µM.

Question: And the viability at 20 µM (MCF7 [4])?
Answer: Its viability at 20 µM is under 50%.

Question: What does the source list for `COc1ccc(-c2oc3c(CC=C(C)C)c(OCCCN4CCNCC4)cc(O)c3c(=O)c2O[C@@H]2O[C@@H](C)[C@H](O)[C@@H](O)[C@H]2O)cc1`?
Answer: IC50 (MCF7 [1]): 4.07 µM; IC50 [2]: > 20 µM; selectivity ratio [3]: > 5; viability at 20 µM (MCF7 [4]): < 50%

Question: Which IC50 (MCF7 [1]) does the source give for `CCN(CC)CCCOc1cc(O)c2c(=O)c(O[C@@H]3O[C@@H](C)[C@H](O)[C@@H](O)[C@H]3O)c(-c3ccc(OC)cc3)oc2c1CC=C(C)C` here?
Answer: Its IC50 is 3.26 µM.

Question: What about the IC50 [2] of the same compound?
Answer: Its IC50 is 6.19 µM.

Question: And the selectivity ratio [3]?
Answer: The selectivity ratio was 1.89.

Question: What about the viability at 20 µM (MCF7 [4]) of the same compound?
Answer: Its viability at 20 µM is under 50%.

Question: With `COc1ccc(-c2oc3c(CC=C(C)C)c(OC(=O)N(C)C)cc(O)c3c(=O)c2O[C@@H]2O[C@@H](C)[C@H](O)[C@@H](O)[C@H]2O)cc1` as the compound, how does the IC50 (MCF7 [1]) read?
Answer: The IC50 was over 20 µM.

Question: With `C#CCOc1cc(O)c2c(=O)c(O[C@@H]3O[C@@H](C)[C@H](O)[C@@H](O)[C@H]3O)c(-c3ccc(OC)cc3)oc2c1CC=C(C)C` as the compound, how does the IC50 (MCF7 [1]) read?
Answer: The IC50 was 2.79 µM.

Question: What about the IC50 [2] of the same compound?
Answer: Its IC50 is 6.43 µM.

Question: And the selectivity ratio [3]?
Answer: The selectivity ratio was 2.3.

Question: And the viability at 20 µM (MCF7 [4])?
Answer: The viability at 20 µM was under 50%.

Question: Which IC50 (MCF7 [1]) does the source give for `COc1ccc(-c2oc3c(CC=C(C)C)c(O)c(CN4CCC(C)CC4)c(O)c3c(=O)c2O[C@@H]2O[C@@H](C)[C@H](O)[C@@H](O)[C@H]2O)cc1` here?
Answer: Its IC50 is 17.4 µM.

Question: Which IC50 (MCF7 [1]) does the source give for `COc1ccc(-c2oc3c(CC=C(C)C)c(OCCCN4CCC(C)CC4)cc(O)c3c(=O)c2O[C@@H]2O[C@@H](C)[C@H](O)[C@@H](O)[C@H]2O)cc1` here?
Answer: Its IC50 is 3.17 µM.

Question: And the IC50 [2]?
Answer: Its IC50 is 10.3 µM.

Question: And the selectivity ratio [3]?
Answer: The selectivity ratio was 3.24.

Question: What about the viability at 20 µM (MCF7 [4]) of the same compound?
Answer: The viability at 20 µM was under 50%.

Question: For `COc1ccc(-c2oc3c(CC=C(C)C)c(OCCCBr)cc(O)c3c(=O)c2O[C@@H]2O[C@@H](C)[C@H](O)[C@@H](O)[C@H]2O)cc1`, which IC50 (MCF7 [1]) is on record?
Answer: The IC50 was 13.4 µM.

Question: And the viability at 20 µM (MCF7 [4])?
Answer: Its viability at 20 µM is under 50%.

Question: What does the source list for `COc1ccc(-c2oc3c(CC=C(C)C)c(OC(C)=O)cc(OC(C)=O)c3c(=O)c2O[C@@H]2O[C@@H](C)[C@H](OC(C)=O)[C@@H](OC(C)=O)[C@H]2OC(C)=O)cc1`?
Answer: IC50 (MCF7 [1]): 0.7 µM; IC50 [2]: 3.13 µM; selectivity ratio [3]: 4.47; viability at 20 µM (MCF7 [4]): < 50%; Ratio IC50 (MCF7 [5]): 5

Question: Which IC50 (MCF7 [1]) does the source give for `COc1ccc(-c2oc3c(CC=C(C)C)c(O)c(CN4CCN(C)CC4)c(O)c3c(=O)c2O[C@@H]2O[C@@H](C)[C@H](O)[C@@H](O)[C@H]2O)cc1` here?
Answer: The IC50 was over 20 µM.

Question: With `C=C(C)COc1c(CN2CCC(C)CC2)c(O)c2c(=O)c(O[C@@H]3O[C@@H](C)[C@H](O)[C@@H](O)[C@H]3O)c(-c3ccc(OC)cc3)oc2c1CC=C(C)C` as the compound, how does the IC50 (MCF7 [1]) read?
Answer: Its IC50 is over 20 µM.

Question: With `COc1ccc(-c2oc3c(CC=C(C)C)c(OCC=C(C)C)cc(O)c3c(=O)c2O[C@@H]2O[C@@H](C)[C@H](O)[C@@H](O)[C@H]2O)cc1` as the compound, how does the IC50 (MCF7 [1]) read?
Answer: Its IC50 is 2.17 µM.

Question: And the IC50 [2]?
Answer: Its IC50 is 6.74 µM.

Question: What about the selectivity ratio [3] of the same compound?
Answer: Its selectivity ratio is 2.85.

Question: What about the viability at 20 µM (MCF7 [4]) of the same compound?
Answer: Its viability at 20 µM is under 50%.

Question: For `C#CCOc1cc(OCC#C)c2c(=O)c(O[C@@H]3O[C@@H](C)[C@H](O)[C@@H](O)[C@H]3O)c(-c3ccc(OC)cc3)oc2c1CC=C(C)C`, which IC50 (MCF7 [1]) is on record?
Answer: Its IC50 is 6.24 µM.

Question: And the viability at 20 µM (MCF7 [4])?
Answer: Its viability at 20 µM is under 50%.

Question: Which IC50 (MCF7 [1]) does the source give for `COc1ccc(-c2oc3c(CC=C(C)C)c(OCc4ccc([N+](=O)[O-])cc4)cc(O)c3c(=O)c2O[C@@H]2O[C@@H](C)[C@H](O)[C@@H](O)[C@H]2O)cc1` here?
Answer: Its IC50 is over 20 µM.

Question: For `CCOc1cc(O)c2c(=O)c(O[C@@H]3O[C@@H](C)[C@H](O)[C@@H](O)[C@H]3O)c(-c3ccc(OC)cc3)oc2c1CC=C(C)C`, which IC50 (MCF7 [1]) is on record?
Answer: Its IC50 is 8.25 µM.

Question: And the viability at 20 µM (MCF7 [4])?
Answer: The viability at 20 µM was under 50%.

Question: For `COc1ccc(-c2oc3c(CC=C(C)C)c(OCCCN4CCCCC4)cc(O)c3c(=O)c2O[C@@H]2O[C@@H](C)[C@H](O)[C@@H](O)[C@H]2O)cc1`, which IC50 (MCF7 [1]) is on record?
Answer: The IC50 was 3.79 µM.

Question: What about the IC50 [2] of the same compound?
Answer: The IC50 was 15.5 µM.

Question: What about the selectivity ratio [3] of the same compound?
Answer: The selectivity ratio was 4.08.

Question: And the viability at 20 µM (MCF7 [4])?
Answer: Its viability at 20 µM is under 50%.

Question: With `COc1ccc(-c2oc3c(CC=C(C)C)c(OCCCN4CCCC4)cc(O)c3c(=O)c2O[C@@H]2O[C@@H](C)[C@H](O)[C@@H](O)[C@H]2O)cc1` as the compound, how does the IC50 (MCF7 [1]) read?
Answer: Its IC50 is 3.09 µM.

Question: And the IC50 [2]?
Answer: The IC50 was 6.15 µM.

Question: What about the selectivity ratio [3] of the same compound?
Answer: The selectivity ratio was 1.99.

Question: And the viability at 20 µM (MCF7 [4])?
Answer: The viability at 20 µM was under 50%.

Question: For `CCN(CC)Cc1c(O)c(CC=C(C)C)c2oc(-c3ccc(OC)cc3)c(O[C@@H]3O[C@@H](C)[C@H](O)[C@@H](O)[C@H]3O)c(=O)c2c1O`, which IC50 (MCF7 [1]) is on record?
Answer: The IC50 was over 20 µM.
